Results from US9695167B2, “Substituted triazolo[1,5-a]pyridines and triazolo[1,5-a]pyrazines as LSD1 inhibitors” (Incyte Corporation, priority 2014, dated 2017).

Target: LSD-1 enzyme (LSD1/KDM1A) (Homo sapiens (Human), UniProt O60341)
Assay: biochemical
Description: LANCE LSD1/KDM1A demethylase assay—10 μL of 1 nM LSD-1 enzyme (ENZO BML-SE544-0050) in the assay buffer (50 mM Tris, pH 7.5, 0.01% Tween-20, 25 mM NaCl, 5 mM DTT) were preincubated for 1 hour at 25° C. with 0.8 μL compound/DMSO dotted in black 384 well polystyrene plates. […] After stopping the reactions plates were incubated for 30 minutes and read on a PHERAstar FS plate reader (BMG Labtech).

Row | SMILES | IC50 [nM]
1 | Cc1ccc(-c2c(-c3ccc(C#N)cc3)cc(OC[C@@H]3CCNC3)c3ncnn23)cc1 [Example 1, 4-{5-(4-methylphenyl)-8-[(3R)-pyrrolidin-3-ylmethoxy][1,2,4]triazolo[1,5-a]pyridin-6-yl}benzonitrile] | < 50
2 | Cc1ccc(-c2c(-c3ccc(C#N)cc3)cc(CCC3CCNC3)c3ncnn23)cc1 (centres unmarked) [Example 2, 4-[5-(4-methylphenyl)-8-(2-pyrrolidin-3-ylethyl)[1,2,4]triazolo[1,5-a]pyridin-6-yl]benzonitrile] | < 50
3 | CN[C@H]1CCN(Cc2cc(-c3ccc(C#N)cc3)c(-c3ccc(C)cc3)n3ncnc23)C1 [Example 10, 4-[8-{[(3S)-3-(methylamino)pyrrolidin-1-yl]methyl}-5-(4-methylphenyl)[1,2,4]triazolo[1,5-a]pyridin-6-yl]benzonitrile] | < 50
4 | CN[C@@H]1CCN(Cc2cc(-c3ccc(C#N)cc3)c(-c3ccc(C)cc3)n3ncnc23)C1 [Example 11, 4-[8-{[(3R)-3-(methylamino)pyrrolidin-1-yl]methyl}-5-(4-methylphenyl)[1,2,4]triazolo[1,5-a]pyridin-6-yl]benzonitrile] | < 50
5 | Cc1ccc(-c2c(-c3ccc(C#N)cc3)nc(OC[C@@H]3CCNC3)c3ncnn23)cc1 [Example 12, 4-{5-(4-methylphenyl)-8-[(3R)-pyrrolidin-3-ylmethoxy][1,2,4]triazolo[1,5-a]pyrazin-6-yl}benzonitrile] | < 50
